Measurements taken from the NIST ThermoML archive (doi:10.1016/j.jct.2011.07.018).
Numbers after ± are expanded uncertainties.

Legend:
[1] = excess molar enthalpy (molar enthalpy of mixing); xn = mol fraction of the nth substance listed; details: 298.15 K, 101 kPa, Liquid, isothermal titration calorimeter
[2] = 298.15 K; 101.33 kPa; Liquid; Vibrating tube method

CCCCCCC(C)=O [2-octanone] + CCCCCCO
[1]
Details | excess molar enthalpy [kcal/mol]
x2 = 0.021 | 0.0275 ± 0.000478
x2 = 0.041 | 0.0519 ± 0.000717
x2 = 0.06 | 0.0741 ± 0.000956
x2 = 0.079 | 0.0939 ± 0.0012
x2 = 0.097 | 0.112 ± 0.00143
x2 = 0.114 | 0.129 ± 0.00167
x2 = 0.13 | 0.143 ± 0.00191
x2 = 0.146 | 0.157 ± 0.00191
x2 = 0.164 | 0.171 ± 0.00215
x2 = 0.181 | 0.183 ± 0.00239
x2 = 0.197 | 0.195 ± 0.00239
x2 = 0.213 | 0.205 ± 0.00263
x2 = 0.228 | 0.214 ± 0.00263
x2 = 0.242 | 0.223 ± 0.00287
x2 = 0.259 | 0.232 ± 0.00287
x2 = 0.275 | 0.239 ± 0.00311
x2 = 0.29 | 0.246 ± 0.00311
x2 = 0.304 | 0.252 ± 0.00311
x2 = 0.314 | 0.258 ± 0.00335
x2 = 0.322 | 0.261 ± 0.00335
x2 = 0.331 | 0.264 ± 0.00335
x2 = 0.339 | 0.267 ± 0.00335
x2 = 0.349 | 0.27 ± 0.00335
x2 = 0.359 | 0.273 ± 0.00335
x2 = 0.367 | 0.275 ± 0.00359
x2 = 0.376 | 0.278 ± 0.00359
x2 = 0.385 | 0.28 ± 0.00359
x2 = 0.394 | 0.282 ± 0.00359
x2 = 0.405 | 0.284 ± 0.00359
x2 = 0.415 | 0.286 ± 0.00359
x2 = 0.426 | 0.287 ± 0.00359
x2 = 0.438 | 0.289 ± 0.00359
x2 = 0.448 | 0.29 ± 0.00359
x2 = 0.458 | 0.291 ± 0.00359
x2 = 0.469 | 0.291 ± 0.00359
x2 = 0.48 | 0.291 ± 0.00359
x2 = 0.492 | 0.292 ± 0.00359
x2 = 0.504 | 0.292 ± 0.00359
x2 = 0.517 | 0.291 ± 0.00359
x2 = 0.531 | 0.29 ± 0.00359
x2 = 0.542 | 0.289 ± 0.00359
x2 = 0.554 | 0.288 ± 0.00359
x2 = 0.566 | 0.286 ± 0.00359
x2 = 0.58 | 0.284 ± 0.00359
x2 = 0.593 | 0.282 ± 0.00359
x2 = 0.608 | 0.279 ± 0.00359
x2 = 0.623 | 0.275 ± 0.00359
x2 = 0.638 | 0.271 ± 0.00335
x2 = 0.652 | 0.266 ± 0.00335
x2 = 0.667 | 0.261 ± 0.00335
x2 = 0.682 | 0.255 ± 0.00335
x2 = 0.698 | 0.249 ± 0.00311
x2 = 0.714 | 0.241 ± 0.00311
x2 = 0.731 | 0.233 ± 0.00287
x2 = 0.746 | 0.225 ± 0.00287
x2 = 0.762 | 0.217 ± 0.00287
x2 = 0.778 | 0.207 ± 0.00263
x2 = 0.795 | 0.196 ± 0.00263
x2 = 0.812 | 0.185 ± 0.00239
x2 = 0.83 | 0.171 ± 0.00215
x2 = 0.85 | 0.157 ± 0.00191
x2 = 0.866 | 0.143 ± 0.00191
x2 = 0.879 | 0.129 ± 0.00167
x2 = 0.897 | 0.112 ± 0.00143
x2 = 0.916 | 0.0944 ± 0.0012
x2 = 0.936 | 0.0746 ± 0.000956
x2 = 0.956 | 0.0526 ± 0.000717
x2 = 0.978 | 0.0277 ± 0.000478

C[S+](C)[O-] [dimethyl sulfoxide]
Details | mass density [kg/m3]
[2] | 1095.32 ± 0.31

CN(C)C=O [dimethylformamide]
Details | mass density [kg/m3]
[2] | 944.34 ± 0.24

CCCCCCO [hexan-1-ol]
Details | mass density [kg/m3]
[2] | 815.21 ± 0.64

CCCCCC(=O)O [hexanoic acid]
Details | mass density [kg/m3]
[2] | 922.06 ± 0.75

CCCCCC(=O)O [hexanoic acid] + CCCCCCO
[1]
Details | excess molar enthalpy [kcal/mol]
x2 = 0.025 | 0.0232 ± 0.000478
x2 = 0.048 | 0.0423 ± 0.000717
x2 = 0.07 | 0.0586 ± 0.000956
x2 = 0.091 | 0.0722 ± 0.000956
x2 = 0.112 | 0.0841 ± 0.0012
x2 = 0.131 | 0.0942 ± 0.0012
x2 = 0.154 | 0.106 ± 0.00143
x2 = 0.176 | 0.115 ± 0.00143
x2 = 0.198 | 0.123 ± 0.00167
x2 = 0.218 | 0.129 ± 0.00167
x2 = 0.238 | 0.134 ± 0.00167
x2 = 0.256 | 0.139 ± 0.00191
x2 = 0.268 | 0.143 ± 0.00191
x2 = 0.277 | 0.145 ± 0.00191
x2 = 0.287 | 0.147 ± 0.00191
x2 = 0.298 | 0.149 ± 0.00191
x2 = 0.309 | 0.15 ± 0.00191
x2 = 0.321 | 0.152 ± 0.00191
x2 = 0.335 | 0.153 ± 0.00191
x2 = 0.349 | 0.155 ± 0.00191
x2 = 0.365 | 0.156 ± 0.00191
x2 = 0.377 | 0.156 ± 0.00191
x2 = 0.39 | 0.156 ± 0.00191
x2 = 0.404 | 0.156 ± 0.00191
x2 = 0.419 | 0.156 ± 0.00191
x2 = 0.435 | 0.156 ± 0.00191
x2 = 0.452 | 0.155 ± 0.00191
x2 = 0.47 | 0.153 ± 0.00191
x2 = 0.491 | 0.151 ± 0.00191
x2 = 0.506 | 0.149 ± 0.00191
x2 = 0.523 | 0.147 ± 0.00191
x2 = 0.54 | 0.144 ± 0.00191
x2 = 0.559 | 0.141 ± 0.00191
x2 = 0.579 | 0.137 ± 0.00167
x2 = 0.601 | 0.132 ± 0.00167
x2 = 0.624 | 0.127 ± 0.00167
x2 = 0.649 | 0.121 ± 0.00167
x2 = 0.669 | 0.115 ± 0.00143
x2 = 0.691 | 0.109 ± 0.00143
x2 = 0.714 | 0.103 ± 0.00143
x2 = 0.738 | 0.0956 ± 0.0012
x2 = 0.765 | 0.0872 ± 0.0012
x2 = 0.793 | 0.0784 ± 0.0012
x2 = 0.817 | 0.07 ± 0.000956
x2 = 0.843 | 0.0609 ± 0.000956
x2 = 0.87 | 0.0511 ± 0.000717
x2 = 0.899 | 0.0404 ± 0.000717
x2 = 0.931 | 0.0272 ± 0.000478
x2 = 0.964 | 0.0141 ± 0.000239
